Assay results published in article PMC3094704, “S-Petasin, the Main Sesquiterpene of Petasites formosanus, Inhibits Phosphodiesterase Activity and Suppresses Ovalbumin-Induced Airway Hyperresponsiveness” (Evidence-based Complementary and Alternative Medicine : eCAM, 2011).
pEC50: −log10 of the molar value.

Experiments:
[1] = system: high-affinity rolipram binding sites (HARBSs) of guinea pig brain cell membranes; test: Displacement of [3H]-rolipram (PDE4H determination)
Protocol: When the above-described guinea pigs were sacrificed, the whole brains were removed and homogenized with a glass/Teflon homogenizer (Glas-Col, Terre Haute, IN, USA) in 10 volumes of cold medium (pH 6.5) containing 20 mM Bis-Tris, 2 mM benzamidine, 2 mM EDTA, 50 mM sodium chloride, 0.1 mM PMSF and 1 mM dithiothreitol. At 4°C, the homogenate was centrifuged at 170 g for 5 min to remove connective tissues and blood vessels. The suspended homogenate was then re-centrifuged at 40 000 g for 30 min to separate the cytosolic and particulate portions. The particulate portion was re-suspended in a suspension at a concentration of 400 mg/mL (wet weight/volume), after washing three times with homogenizing buffer. The particulate portion mainly consisted of cell membranes. The binding ability of S-petasin (3–300 μM) or Ro 20-1724 (1–10,000 nM), a reference drug, to high-affinity rolipram binding sites (HARBSs) of the membranes was determined by replacing 2 nM [^3H]-rolipram in a reaction buffer at 30°C for 1 h, according to the method described by previous investigators and modified by us. Briefly, the reaction buffer consisted of 50 mM Tris-HCl and 5 mM MgCl2 (pH 7.5). The total volume of the reaction mixture was 25 μL, consisting of 10 μL of particulate suspension, 10 μL of [^3H]-rolipram and 5 μL of S-petasin or Ro 20-1724. After 1 h, the reaction was terminated by moving the reaction vessel into crushed ice. Then the reaction mixture was transferred onto Whatman GF/B glass-fiber filters, which were soaked in a 0.3% polyethyleneimine solution in a mini-funnel. The reaction mixture was filtered by centrifuging at 90 g for 10 s, and the filtrate was collected into a 1.5 mL Eppendorf tube with a top adapted to the outlet of the mini-funnel. The filters were washed with 300 μL of reaction buffer three times each in the same way, and transferred into 2 mL of cocktail for radiation counting (total binding) using a β-scintillation counter (Beckman, Fullerton, CA, USA). Non-specific binding, which was defined in the presence of 10 μM Ro 20-1724, was subtracted from the total binding to yield the specific binding. The effective concentration (EC50) values of S-petasin and Ro 20-1724, at which a half of [^3H]-rolipram bound onto HARBSs of cell membranes was displaced, were defined as the PDE4H values, and these were related to any adverse effects, such as nausea, vomiting and gastric hypersecretion.

[2] = Solubility limit of S-petasin in the binding assay; assay type: physicochemical; details: reaction buffer of binding assay, aqueous buffer; read-out: Highest attainable concentration owing to solubility
[3] = system: OVA-sensitized and challenged BALB/c mice; test: IgG2a and IgE in serum and BALF (ELISA); assay type: in vivo, mouse
Protocol: Ten female BABL/c mice in each group were sensitized by an intraperitoneal (i.p.) injection of 20 μg of OVA emulsified in 2.25 mg aluminum hydroxide gel in a total volume of 100 μL on days 0 and 14. The mice were challenged via the airway by 1% OVA in saline for 30 min on Days 28, 29 and 30 by ultrasonic nebulization. Six weeks after the last of three primary OVA challenges, the mice were exposed to 1% OVA for 30 min by nebulization as a secondary challenge. AHR was assessed on Day 74 (48 h after 1% OVA provocation) in each group. […] For comparison, sham-treated mice were sensitized but challenged with saline instead of 1% OVA (non-challenged). The vehicle, a mixture of alcohol : DMSO : 30% HPβCD : saline (0.5 : 0.5 : 1 : 8 , v/v), or S-petasin was injected at a volume of 0.01 mL/g of body weight. AHR was measured in unrestrained animals by barometric plethysmography using a whole-body plethysmograph (WBP) and analyzed using software of Life Science Suite P3 Analysis Modules (Gould, LDS Test and Measurement LLC, Valley View, OH, USA). The mice were placed into the main chamber of the WBP, and the baseline enhanced pause (P enh) value was determined. Then the mice were nebulized first with phosphate-buffered saline (PBS), and subsequently with increasing doses (6.25–50 mg/mL) of MCh for 3 min for each nebulization, followed by readings of breathing parameters for 3 min after each nebulization with determination of P enh values. Twenty-four hours after the P enh determination, these mice were anesthetized with pentobarbital (50 mg/kg, i.p.), and lavaged via a tracheal tube with PBS (1 × 1.0 mL, 37°C). After lavage, blood was collected from the jugular vein and allowed to sit so that it would coagulate. The collected bronchoalveolar lavage fluid (BALF) and coagulated blood were, respectively, centrifuged at 630 g for 7 min and at 3700 g for 10 min at 4°C, respectively. After centrifugation, the supernatants of BALF and serum were stored at −20°C until the determinations of cytokines, including interleukin (IL)-2, IL-4, IL-5, tumor necrosis factor (TNF)-α and interferon (IFN)-γ by flow cytometric methods using mouse Th1/Th2 cytokine CBA kits, of total immunoglobulin E (IgE), and of total IgG2a using enzyme-linked immunosorbent assay (ELISA) kits (Pharmingen, San Diego, CA, USA) according to the respective recommendations of the manufacturer. OVA-specific IgE was measured as described previously with some modifications. Wells were coated with 100 μL of OVA (20 μg/mL) instead of the capture antibody. Levels are expressed in arbitrary units, where one arbitrary unit equals the optical density of the sample divided by the optical density of unchallenged mouse serum or BALF (standard). The pellet from BALF was re-suspended in ACK lysing buffer (1.658 g NH4Cl, 0.2 g KHCO3 and 1.44 mg EDTA in 200 mL of water) to lyse the residual erythrocytes in each sample. The number of inflammatory cells was counted using a hemocytometer (Hausser Scientific, Horsham, PA, USA). Cytospun slides were stained and differentiated in a blinded fashion by counting at least 100 cells under light microscopy.

[4] = system: cAMP-phosphodiesterase (PDE); set-up: method as in PMID 11345692; details: cited from earlier work

C=C(C)[C@@H]1C[C@@]2(C)C(=CC1=O)CC[C@@H](OC(=O)/C=C\SC)[C@@H]2C [S-Petasin]
pEC50 ([1]; HARBSs of guinea pig brain cell membranes): < 3.52
percentage displacement of [3H]-rolipram binding ([1]; at the highest concentration (300 μM), 2 nM [3H]-rolipram): 28.0%±5.7%
solubility [2]: ≤ 300 µM
Reduction of total IgG2a level in the serum ([3]; 30 μmol/kg s.c.): significantly reversed
Enhancement of total IgE in the BALF ([3]; 30 μmol/kg s.c., exception at 10 μmol/kg): dose-dependently and significantly suppressed
Enhancement of OVA-specific IgE in the BALF ([3]; 10–30 μmol/kg s.c.): dose-dependently and significantly suppressed
Enhancement of OVA-specific IgE in the serum ([3]; 10–30 μmol/kg s.c.): dose-dependently and significantly suppressed
Enhancement of total IgE in the serum ([3]; 10–30 μmol/kg s.c.): dose-dependently and significantly suppressed
Inhibition of cAMP-phosphodiesterase (PDE) activity [4]: inhibited
